Experimental data as given in patent publication US12317913B2, “Dietary butyrate” (SOCIETE DES PRODUITS NESTLE S.A., priority 2019, dated 2025).

Experiments:
Human primary myoblasts = experiment: Muscle stem cell commitment (MyoD+ cells); type: cell-based; conditions: donors 8 and 4; 96 hours culture; FIG. 3
Experimental: Human primary myoblasts from two different donors (donor 8 & donor 4) were seeded in 384 well plates at a density of 1'000 cells per well in skeletal muscle growth medium (SKM-M, AMSbio). For treatment, compounds were directly added to the myoblast cultures 16 hours after initial plating. All cultures were then grown for 96 hours. Cells were stained for Pax7 and MyoD expression using antibodies directed against Pax7 and MyoD and counterstained with Hoechst 33342 to visualize cell nuclei. […] Image acquisition was performed using the ImageXpress (Molecular Devices) platform. Custom module analysis based on Multi-Wavelength Cell Scoring of the MetaXpress software was used for quantification. For each condition, the total number of cells was determined to evaluate compound toxicity, and the number of MyoD+ cells was normalized to the total cell number in order to evaluate the proportion of this population. *, **, ***, **** indicates difference from the control (DMSO 1%), One-way ANOVA, with p<0.05, p<0.01, p<0.001, p<0.0001, respectively. Data are presented as Mean +/− SEM

[1] = target: T1, porcine pancreatic lipase (PPL) (Sus scrofa, UniProt P00591); experiment: In vitro digestion in simulated intestinal fluid (SIF), pH-stat; type: in vitro ADME; conditions: SIF alone; emulsion with 200 mg fat; pH 6.8, 37° C.
T1 construct: by porcine pancreatic lipase (from pancreatin); from tissue; host or cells: pancreatin (pancreatic extract)
T1 sequence (P00591 1-450): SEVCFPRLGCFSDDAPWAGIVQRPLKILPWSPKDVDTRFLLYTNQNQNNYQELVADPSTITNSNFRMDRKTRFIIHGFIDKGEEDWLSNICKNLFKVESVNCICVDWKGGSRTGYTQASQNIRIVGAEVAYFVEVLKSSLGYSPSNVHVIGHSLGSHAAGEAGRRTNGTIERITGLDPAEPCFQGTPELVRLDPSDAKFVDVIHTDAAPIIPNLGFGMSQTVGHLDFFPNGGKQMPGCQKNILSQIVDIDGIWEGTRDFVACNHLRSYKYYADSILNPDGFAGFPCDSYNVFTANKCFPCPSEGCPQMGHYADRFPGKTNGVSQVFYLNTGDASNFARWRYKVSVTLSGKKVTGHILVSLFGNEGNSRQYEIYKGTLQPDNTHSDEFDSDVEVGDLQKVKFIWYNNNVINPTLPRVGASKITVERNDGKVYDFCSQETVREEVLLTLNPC
T1 sequence (P02703 23-112 partner): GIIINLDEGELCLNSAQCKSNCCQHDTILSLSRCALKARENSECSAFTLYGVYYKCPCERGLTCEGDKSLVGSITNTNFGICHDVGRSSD
From the text: (§1) An emulsion was then created using an ultrasonic probe homogeniser.

[2] = system: rabbit gastric lipase (RGL) followed by porcine pancreatic lipase (PPL); experiment: Sequential in vitro digestion, simulated gastric fluid (SGF) then simulated intestinal fluid (SIF); type: in vitro ADME
From the text: as §1

SMILES: CCCC(=O)[O-].[Na+] [sodium butyrate]
- Myogenic commitment (MyoD+ cells normalized to total cell number) (Human primary myoblasts): promotes muscle stem cell differention

SMILES: CCCC(=O)OCC(COC(=O)CCC)OC(=O)CCC [tributyrin]
- Initial rate of lipolysis [1]: 223 ± 59 µmol/min
- Initial lipolysis rate in SIF ([2]; SGF-SIF sequential digestion, measured in SIF compartment): 44.1 ± 8.8 µmol/min
- Hydrolysis in the stomach (gastric lipolysis), in words ([2]; gastric compartment, inferred from SGF-SIF vs SIF): extensive hydrolysis in the stomach
- Lipolysis by gastric lipase ([2]; indicated by decreased total fatty acid release in SIF after RGL in SGF): −60%
